Laboratory results from paper PMC12116762, “Topobexin targets the Topoisomerase II ATPase domain for beta isoform-selective inhibition and anthracycline cardioprotection” (Nature Communications, 2025).

Key:
[1] = system: neonatal rat ventricular cardiomyocytes (NVCM); experiment: Protection against DAU-induced cytotoxicity (LDH release) in NVCM; type: cell-based; set-up: key to Suppl.Fig.3 DAU-induced cytotoxicity (LDH release) in NVCM, mean of independent replicates / LDH release (DAU-induced cytotoxicity), mean of independent replicates: % of total LDH activity; details: for minimal effective concentration: Rattus norvegicus, Cardiomyocyte, NVCM, protection against DAU 1.2 µM, n=4, read-out: LEC = lowest effective concentration
Method: (§1) The protective effects of the BNS-22 and newly prepared compounds were evaluated using primary cultures of neonatal rat cardiomyocytes isolated in house as previously described. Hearts isolated from 1- to 3-day-old Wistar rats were minced in buffer (1.2 mM MgSO4 · 7H2O, 116 mM NaCl, 5.3 mM KCl, 1.13 mM NaH2PO4 · H2O, 20 mM 4-(2-hydroxyethyl)-1-piperazine ethanesulfonic acid (HEPES), glucose 1 mg/mL) on ice, then serially digested (20 min, six repetitions) at 37 °C with collagenase type II (60 U/mL, Gibco). After 2 h pre-plating in a 150 mm Petri dish per approximately 20 hearts to minimize non-myocyte contamination, cells were plated in 24-well gelatin-coated plates at a density of 400,000 cells per well. Cells were cultured at 37 °C and 5% CO2 in Dulbecco’s modified Eagle medium (DMEM)/ F12 culture medium supplemented with 10% horse serum, 5% fetal bovine serum (FBS), 20 mM sodium pyruvate, 50 U/mL penicillin, and 50 μg/mL streptomycin. Freshly isolated cells were left for 40 h to attach and form a culture of spontaneously beating cardiomyocytes, then the medium was changed to DMEM/F12 medium supplemented with 5% fetal bovine serum, 20 mM sodium pyruvate, 50 U/mL penicillin, and 50 μg/mL streptomycin. For the experiments, the medium was changed to serum- and pyruvate-free DMEM/F12 with 50 U/mL penicillin and 50 μg/mL streptomycin. Cardiomyocytes were pretreated with BNS-22 or new compounds for 3 h and then coincubated with DAU (1.2 µM) for another 3 h. After the DAU treatment period, the culture medium was exchanged for the drug-free DMEM/F12 with 50 U/mL penicillin and 50 μg/mL streptomycin for the 48 h follow-up. Experiments to determine the inherent toxicity of each compound studied follow the same schedule, only no DAU was added. Subsequently, the culture medium sample was taken from each well for evaluation of lactate dehydrogenase (LDH) activity. The total LDH activity of each sample for normalization was measured after 1 h of incubation at 37 °C in lysis buffer (0.1 M potassium phosphate, 1% Triton X-100, 1 mM dithiothreitol (DTT), 2 mM EDTA, pH 7.8, 15 min in RT). All samples were immediately analyzed in Tris HCl buffer (pH 8.9) containing 35 mM lactic acid and 5 mM NAD^+. The rate of NAD^+ reduction was monitored spectrophotometrically at 340 nm for 2 min. The slope of the linear region was calculated, and the results were expressed as a percentage of the total LDH. Each presented data point was obtained from distinct sample.

[2] = system: neonatal rat ventricular cardiomyocytes (NVCM); experiment: Inherent toxicity (LDH release) in NVCM; type: cell-based; set-up: key to LDH release (inherent toxicity), mean of independent replicates: % of total LDH activity; details: NVCM; for LTC = lowest toxic concentration: compound alone, n=4; for LDH release (inherent toxicity), mean of independent replicates: Suppl.Fig.4
Method: as §1

Row | SMILES | minimal effective concentration [1] | Suppl.Fig.3 DAU-induced cytotoxicity (LDH release) in NVCM, mean of independent replicates ([1]; compound 0.1 µM + DAU 1.2 µM) | Suppl.Fig.3 DAU-induced cytotoxicity (LDH release) in NVCM, mean of independent replicates ([1]; compound 1 µM + DAU 1.2 µM) | Suppl.Fig.3 DAU-induced cytotoxicity (LDH release) in NVCM, mean of independent replicates ([1]; compound 10 µM + DAU 1.2 µM) | Suppl.Fig.3 DAU-induced cytotoxicity (LDH release) in NVCM, mean of independent replicates ([1]; compound 30 µM + DAU 1.2 µM) | Suppl.Fig.3 DAU-induced cytotoxicity (LDH release) in NVCM, mean of independent replicates ([1]; compound 100 µM + DAU 1.2 µM) | LTC = lowest toxic concentration [2] | LDH release (inherent toxicity), mean of independent replicates ([2]; compound alone 0.1 µM) | LDH release (inherent toxicity), mean of independent replicates ([2]; compound alone 1 µM) | LDH release (inherent toxicity), mean of independent replicates ([2]; compound alone 10 µM) | LDH release (inherent toxicity), mean of independent replicates ([2]; compound alone 30 µM) | LDH release (inherent toxicity), mean of independent replicates ([2]; compound alone 100 µM) | Suppl.Fig.3 DAU-induced cytotoxicity (LDH release) in NVCM, mean of independent replicates ([1]; compound 3 µM + DAU 1.2 µM) | LDH release (inherent toxicity), mean of independent replicates ([2]; compound alone 3 µM) | Suppl.Fig.3 DAU-induced cytotoxicity (LDH release) in NVCM, mean of independent replicates ([1]; compound 0.01 µM + DAU 1.2 µM) | LDH release (inherent toxicity), mean of independent replicates ([2]; compound alone 0.01 µM)
1 | CCCCc1cc(=O)oc2c(C(=O)N3CCCc4ccccc43)c(OC)cc(OC)c12 [1d] | 1 µM | 44.1431 | 30.0603 | 34.1459 | 74.3781 | 88.2455 | 30 µM | 14.3468 | 13.6854 | 20.4098 | 50.8474 | 76.157 | – | – | – | –
2 | Cc1cc(=O)oc2c(C(=O)N3CCCc4ccccc43)c(O)ccc12 [2a] | – | – | – | 37.2223 | 39.137 | 42.8636 | – | – | – | 13.7502 | 15.9605 | 17.1189 | – | – | – | –
3 | CCc1cc(=O)oc2c(C(=O)N3CCCc4ccccc43)c(O)ccc12 [2b] | – | – | – | 31.7392 | 34.9042 | 31.3386 | – | – | – | 17.3516 | 18.0926 | 18.5764 | – | – | – | –
4 | COc1ccc2c(C)cc(=O)oc2c1C(=O)N1CCCc2ccccc21 [3a] | – | – | 38.7802 | 36.7927 | – | – | > 10 µM | – | 18.1168 | 15.937 | – | – | 37.7536 | 15.6047 | – | –
5 | CCc1cc(=O)oc2c(C(=O)N3CCCc4ccccc43)c(OC)ccc12 [3b] | – | – | 33.4469 | 31.9857 | – | – | > 10 µM | – | 16.0681 | 15.3649 | – | – | 35.1015 | 15.619 | – | –
6 | CCCCc1cc(=O)oc2c(C(=O)N3CCCc4ccccc43)c(OC)ccc12 [3d] | 1 µM | 40.2805 | 35.9225 | 25.0218 | 30.6397 | – | > 30 µM | 14.1948 | 16.3261 | 19.5649 | 19.0356 | – | – | – | 50.7769 | 14.5175
7 | CCCOc1ccc2c(C)cc(=O)oc2c1C(=O)N1CCCc2ccccc21 [4a] | 10 µM | 45.8753 | 42.086 | 32.6284 | 30.3987 | – | > 30 µM | 13.7469 | 13.1211 | 16.3565 | 19.993 | – | – | – | – | –
8 | CCCOc1ccc2c(CC)cc(=O)oc2c1C(=O)N1CCCc2ccccc21 [4b] | 0.1 µM | 43.0735 | 30.3899 | 27.961 | 25.8835 | 28.6308 | – | 14.2064 | 13.8348 | 17.7301 | 17.7791 | 17.3487 | – | – | 47.614 | 14.7625
9 | CCCCc1cc(=O)oc2c(C(=O)N3CCCc4ccccc43)c(OCCC)ccc12 [4d] | 1 µM | 31.1377 | 25.022 | 40.2951 | 73.3675 | 78.9691 | 10 µM | 15.2686 | 16.9179 | 31.7424 | 60.5761 | 70.9323 | – | – | 36.4234 | 17.8445
10 | Cc1cc(=O)oc2c(C(=O)N3CCCc4ccccc43)c(OCCO)ccc12 [5a] | 30 µM | – | 47.2456 | 46.8582 | 41.4003 | 38.7405 | – | – | 12.9508 | 15.8869 | 14.1719 | 15.685 | – | – | – | –
11 | CCCCc1cc(=O)oc2c(C(=O)N3CCCc4ccccc43)c(OCCO)ccc12 [5d] | – | 41.2776 | 35.4099 | 33.3492 | 35.9089 | 42.7736 | – | 15.5556 | 15.5462 | 19.8205 | 25.0146 | 27.0966 | – | – | 44.6742 | 16.4804
